Data on 4 compounds can be found in ChEMBL document CHEMBL4732201, “Synthesis and preliminary anticancer evaluation of new triazole bisphosphonate-based isoprenoid biosynthesis inhibitors” (Eur J Med Chem, 2021).

Experiment [1] concerns the target T1, Farnesyl pyrophosphate synthase (Homo sapiens, UniProt P14324).
T1 sequence (P14324 whole entry): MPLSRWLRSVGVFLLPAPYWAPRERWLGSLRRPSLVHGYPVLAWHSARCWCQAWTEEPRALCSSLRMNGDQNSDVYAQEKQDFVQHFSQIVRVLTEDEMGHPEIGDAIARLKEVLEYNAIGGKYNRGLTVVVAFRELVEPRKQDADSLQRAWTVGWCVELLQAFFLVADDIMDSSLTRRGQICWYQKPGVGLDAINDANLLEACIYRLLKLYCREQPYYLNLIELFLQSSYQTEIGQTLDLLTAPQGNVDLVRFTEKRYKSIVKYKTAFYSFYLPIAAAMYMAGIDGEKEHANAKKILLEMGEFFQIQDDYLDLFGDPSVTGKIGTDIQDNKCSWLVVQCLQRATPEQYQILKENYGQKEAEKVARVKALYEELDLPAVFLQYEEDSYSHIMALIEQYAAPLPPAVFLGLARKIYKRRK
The experiment in a line: Inhibition of FPPS (unknown origin).

For experiment [2], the target named is T2, Geranylgeranyl pyrophosphate synthase (Homo sapiens, UniProt O95749).
T2 sequence (O95749 whole entry): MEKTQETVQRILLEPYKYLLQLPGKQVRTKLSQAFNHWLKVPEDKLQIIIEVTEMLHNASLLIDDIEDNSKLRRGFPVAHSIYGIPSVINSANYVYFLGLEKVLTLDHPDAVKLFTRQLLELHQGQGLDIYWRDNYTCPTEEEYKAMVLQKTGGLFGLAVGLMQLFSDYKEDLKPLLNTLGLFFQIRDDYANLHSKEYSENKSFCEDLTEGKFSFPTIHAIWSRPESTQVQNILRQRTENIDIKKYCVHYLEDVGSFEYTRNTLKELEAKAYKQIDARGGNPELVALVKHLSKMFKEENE
As to the kind of experiment: Inhibition of recombinant human N- terminal His-tagged GGPPS (1 to 300 residues) expressed in Escherichia coli.

The test system of another experiment is RPMI-8226. The experiment in a line: Antiproliferative activity against human RPMI-8226 cells. The format is functional, cell-based.
In experiment [3] the target is T3, Geranylgeranyl pyrophosphate synthase (Homo sapiens) (UniProt O95749).
T3 sequence (whole entry): T2 sequence (O95749 whole entry)
The experiment in a line: Inhibition of GGPPS in human A549 cells assessed as reduction in cell growth at 100 uM incubated for 72 hrs by MTT assay relative to control. The format is cell-based.

Experiment [4] has as its target T3, Geranylgeranyl pyrophosphate synthase (Homo sapiens). The experiment in a line: Inhibition of GGPPS in human MDA-MB-231 cells assessed as reduction in cell growth at 100 uM incubated for 72 hrs by MTT assay relative to control. The format is cell-based.
Experiment [5] has the same target. The experiment in a line: Inhibition of GGPPS in human MIA PaCa-2 cells assessed as reduction in cell growth at 100 uM incubated for 72 hrs by MTT assay relative to control. The format is cell-based.

For the compound `CC(C)=CCC/C(C)=C/CCc1cn(CC(O)(P(=O)(O)O)P(=O)(O)O)nn1`, the IC50 in experiment [1] was 49600 nM; in experiment [2], 173 nM.

Take `CC(C)=CCCC(C)=CCCc1cn(CC(O)(P(=O)(O)O)P(=O)(O)O)nn1`: in the experiment with RPMI-8226, the concentration giving a half-maximal response (EC50) turned out to be 190 nM.

As to `CC(C)=CCC/C(C)=C\CCc1cn(CC(O)(P(=O)(O)O)P(=O)(O)O)nn1`, the IC50 in experiment [1] was determined as 33300 nM; in experiment [2], 75 nM.

With `CCCCc1cn(CCCC(O)(P(=O)(O)O)P(=O)(O)O)nn1`, the growth inhibition (GI) in experiment [3], in experiment [4] and in experiment [5] was less than 30% each time.
